Read-outs that look alike come from different tables or passages of the source.
Key:
[1] = biological target: recombinant human cannabinoid 1 receptor (CB1) (Homo sapiens, UniProt P21554); assay: [35S]GTPγS binding assay, antagonism to CB1-receptor (Pharmacological methods, part V); type: biochemical; details: compound at 1 μM against agonist WIN 55,212-2; 100% = effect of Rimonabant (1 μM); CHO membranes
Description: V. In vitro Determination of Antagonism to CB1-Receptor
Chinese hamster ovary (CHO) cells stably expressing recombinant human cannabinoid 1 receptor (CB1) were cultured in nutrient mixture Ham's F 12 supplemented with 10% heat-inactivated fetal bovine serum, 2 mM L-glutamine, 50 U/ml penicillin, 50 U/ml streptomycin and 0.5 mg/ml geneticin. In order to obtain cells, culture flasks were washed twice with phosphate buffered saline and scraped. Then, cells were collected by centrifugation (200×g, 10 min) and stored dry at −80° C. Cells were homogenized in ice-cold 20 mM HE PES, 10 mM EDTA (pH 7.5) and centrifuged at 40,000×g for 15 min at 4° C. The pellet was resuspended in 20 mM HEPES, 0.1 mM EDTA (pH 7.5) and centrifuged for 15 min at 4° C. The final pellet was resuspended in 20 mM HEPES, 0.1 mM EDTA (pH 7.5), and divided in aliquots and stored at −80° C. until use.
[^35S]GTPγS Binding Assay:
The reaction was performed in 96-well plates. […] The incubation was terminated by rapid filtration through Millipore Multiscreen glass fiber FB, and rinsed two-times with ice-cold assay buffer. Filter plates were dried and 30 μl of scintillation liquid was added. Radioactivity was determined using Wallac Microbeta Trilux. Each experiment was performed at least in duplicate.
The average of basal [35S]GTPγS binding was subtracted from all binding data.
The antagonism of the pyrazoline compounds of general formula I to the CB1-receptor was determined according to the method described in Pharmacological methods, part V (table 2).

CB1-receptor [2] = biological target: CB1-receptor (UniProt P20272); assay: binding of the pyrazoline compounds to CB1-receptors (Pharmacological Methods, Part I); set-up: IC50; species or system human or rat
Description: I. In-vitro Determination of Affinity to CB1/CB2-Receptors
The in-vitro determination of the affinity of the inventive 4-substituted pyrazoline compounds to CB1/CB2-Rezeptors is carried out as described in the publication of Ruth A. Ross, Heather C. Brockie et al., “Agonist-inverse agonist characterisation at CB1 and CB2 cannabinoid receptors of L-759633, L759656 and AM630”, British Journal of Pharmacology, 126, 665-672, (1999), whereby the transfected human CB1 and CB2 receptors of Receptor Biology, Inc. are used. The radioligand used for both receptors is [^3H]-CP55940. The respective parts of the description is hereby incorporated by reference and forms part of the present disclosure.
Rat Cerebellum CB1 Binding
Binding affinity to CB1 receptor was evaluated according to a modification of the method described by Govaerts et al., Eur J Pharmac Sci 23, 233-243 (2004). The respective parts of the description is hereby incorporated by reference and forms part of the present disclosure.
Briefly, cerebellum from male wistar rats (250-300 g) were carefully dissected on ice and homogenates were prepared with Potter-Helveheim in a cold 50 mM Tris-HCl solution containing 5 mM MgCl2, 1 mM EDTA and 0.25 M sucrose, pH 7.4. The suspension was centrifuged at […] for 5 minutes. The supernatants were collected and centrifuged 50,000×g for 15 minutes. The resulting pellets were then resuspended in Tris-HCl buffer without sucrose, homogenized and incubated for 15 min at 37° C. in an orbital shaker bath and centrifuged again at 50,000×g for 15 min. Pellets were weighted, resuspended in Tris-HCl buffer without sucrose, homogenized with Ultraturrax at 13,500 rpm for 3×5 seconds and alicuoted in 0.9 ml volumes in Eppendorf tubes. Alicuotes were centrifuged at 20,800×g for 5 minutes, supernatants discarded and pellets were frozen at −80° C. until use. Total protein concentration was determined using the Bio-Rad Lowry method based kit. Competitive binding experiments were performed in presence of 1 nM [^3H]-CP 55,940 in siliconized glass tubes containing 100 μg protein/tube resuspended in 1 ml final volume of 50 mM Tris-HCl, 5 mM MgCl2, 1 mM EDTA, 0.5% (w/v) bovine serum albumin, pH 7.4. Compounds were present at various concentrations and the non specific binding was determined in the presence of 10 μM HU-210. After 1 hour incubation at 30° C., the suspension was rapidly filtered through 0.5% PEI pre-treated GF/B fiber filters on a 96-well harvester and washed 3 times with 3 ml ice-cold binding buffer without bovine serum albumin. Radioactivity on filters was measured with Wallac Winspectral 1414 counter by liquid scintillation in 6 ml Ecoscint H (National Diagnostics, U.K.). Assays were made in triplicates.
Binding data were analyzed by non-linear regression with the software GraphPad Prism Version 3.03.
The binding of the pyrazoline compounds of general formula I to CB1-receptors was determined according to the method described in the section Pharmacological Methods, Part I.

CB1-receptor [3] = biological target: CB1-receptor (UniProt P20272); assay: as above; set-up: other: 10^−7 M; other: 10^−8 M; species or system human or rat
Method in brief: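 Rat cerebellum membranes (male Wistar), 100 μg protein, competed against 1 nM [3H]-CP 55,940 in 50 mM Tris-HCl, 5 mM MgCl2, 1 mM EDTA, 0.5% BSA, pH 7.4; 1 h at 30 °C. Non-specific binding with 10 μM HU-210; filtration and scintillation counting, triplicates, non-linear regression.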

[4] = radioligand [3H]-CP55940, read-out: IC50

recombinant human cannabinoid 1 receptor (CB1), sequence (P21554 whole entry): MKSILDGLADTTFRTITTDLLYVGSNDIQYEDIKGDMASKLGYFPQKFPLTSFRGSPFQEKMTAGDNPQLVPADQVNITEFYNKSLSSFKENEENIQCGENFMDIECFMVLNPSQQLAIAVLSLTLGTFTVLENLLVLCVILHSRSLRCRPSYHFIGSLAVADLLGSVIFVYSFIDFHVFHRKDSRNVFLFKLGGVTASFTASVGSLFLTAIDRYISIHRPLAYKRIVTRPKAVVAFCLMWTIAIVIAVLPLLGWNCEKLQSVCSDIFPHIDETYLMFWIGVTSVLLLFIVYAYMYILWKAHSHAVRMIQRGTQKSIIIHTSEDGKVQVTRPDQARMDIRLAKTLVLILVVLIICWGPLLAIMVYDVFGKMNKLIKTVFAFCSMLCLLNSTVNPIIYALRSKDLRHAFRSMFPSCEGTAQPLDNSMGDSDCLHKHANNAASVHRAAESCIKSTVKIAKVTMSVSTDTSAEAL

Compound	Antagonism [1] [%]	IC50 (CB1-receptor [2]; [4]) [nM]	Inhibition (CB1-receptor [3]; 10^−7 M) [%]	Inhibition (CB1-receptor [3]; 10^−8 M, in %)	IC50 (CB1-receptor [2]; radioligand [3H]-CP55940, hydrochloride, read-out: IC50) [nM]
C[C@H]1C(C(=O)O)=NN(c2ccc(Cl)cc2Cl)[C@H]1c1ccc(Cl)cc1 (racemic) [Example 19, cis-5-(4-Chloro-phenyl)-1-(2,4-dichloro-phenyl)-4-methyl-4,5-dihydro-1H-pyrazole-3-carboxylic acid]	−18		−3.6	−0.7	
CCOC(=O)C1=NN(c2ccc(Cl)cc2Cl)[C@@H](c2ccc(Cl)cc2)[C@@H]1C(F)(F)F (relative stereo) [Example 416, trans-ethyl 5-(4-chlorophenyl)-1-(2,4-dichlorophenyl)-4-(trifluoromethyl)-4,5-dihydro-1H-pyrazole-3-carboxylate]		182	93.5	41	
C[C@H]1C(C(=O)NN2CC3CCCC3C2)=NN(c2ccc(Cl)cc2Cl)[C@H]1c1ccc(Cl)cc1 (relative stereo) [Example 13, cis-5-(4-Chloro-phenyl)-1-(2,4-dichloro-phenyl)-4-methyl-4,5-dihydro-1H-pyrazole-3-carboxylic acid (hexahydro-cyclopenta[c]pyrrol-2-yl)-amide]		25.1	70.6	27.6	
C[C@@H]1C(C(=O)NC2CCCCCCC2)=NN(c2ccc(Cl)cc2Cl)[C@@H]1c1ccc(Cl)cc1 (relative stereo) [Example 119, cis-5-(4-chlorophenyl)-N-cyclooctyl-1-(2,4-dichlorophenyl)-4-methyl-4,5-dihydro-1H-pyrazole-3-carboxamide]		51.4	73.7	19.5	
COc1ccc([C@H]2[C@@H](C)C(C(=O)NN3CCCCCC3)=NN2c2ccc(Cl)cc2Cl)cc1.Cl (relative stereo) [Example 271, cis-N-(azepan-1-yl)-1-(2,4-dichlorophenyl)-5-(4-methoxyphenyl)-4-methyl-4,5-dihydro-1H-pyrazole-3-carboxamide hydrochloride]		61	73.5	30.6	
CC[C@@H]1C(C(=O)NN2CCCCC2)=NN(c2ccc(Cl)cc2Cl)[C@@H]1c1ccc(Cl)cc1 (relative stereo) [Example 432, cis-5-(4-chlorophenyl)-1-(2,4-dichlorophenyl)-4-ethyl-N-(piperidin-1-yl)-4,5-dihydro-1H-pyrazole-3-carboxamide]	89	89			

More lines, now with the values ahead:

Antagonism [1] [%]	IC50 (CB1-receptor [2]; [4]) [nM]	Inhibition (CB1-receptor [3]; 10^−7 M) [%]	Inhibition (CB1-receptor [3]; 10^−8 M, in %)	IC50 (CB1-receptor [2]; radioligand [3H]-CP55940, hydrochloride, read-out: IC50) [nM]	Compound
23	> 1000				C[C@@H]1C(C(=O)NN2CCCCC2)=NN(c2ccc(Cl)cc2Cl)[C@@H]1c1cccs1.Cl (relative stereo) [Example 430, cis-1-(2,4-dichlorophenyl)-4-methyl-N-(piperidin-1-yl)-5-(thiophen-2-yl)-4,5-dihydro-1H-pyrazole-3-carboxamide hydrochloride]
75	70.8				C[C@@H]1C(C(=O)NN2CCCCC2)=NN(c2ccc(Cl)cc2Cl)[C@H]1c1ccccc1 (relative stereo) [Example 376, trans-1-(2,4-dichlorophenyl)-4-methyl-5-phenyl-N-(piperidin-1-yl)-4,5-dihydro-1H-pyrazole-3-carboxamide]
58	140				C[C@@H]1C(C(=O)NN2CCCCC2)=NN(c2ccc(Cl)cc2Cl)[C@@H]1c1ccccc1 (relative stereo) [Example 375, cis-1-(2,4-dichlorophenyl)-4-methyl-5-phenyl-N-(piperidin-1-yl)-4,5-dihydro-1H-pyrazole-3-carboxamide]
81					C[C@H]1C(C(=O)NN2CCCCC2)=NN(c2ccc(Cl)cc2Cl)[C@H]1c1ccc(Br)s1 (relative stereo) [Example 70, cis-5-(5-Bromo-thiophen-2-yl)-1-(2,4-dichloro-phenyl)-4-methyl-4,5-dihydro-1H-pyrazole-3-carboxylic acid piperidin-1-ylamide]
	122	65.3	15.3		C[C@H]1C(C(=O)NN2CCCCCC2)=NN(c2ccc(Cl)cc2Cl)[C@H]1c1ccc(F)cc1.Cl (stereo in doubt) [Example 227, cis-N-(azepan-1-yl)-1-(2,4-dichlorophenyl)-5-(4-fluorophenyl)-4-methyl-4,5-dihydro-1H-pyrazole-3-carboxamide hydrochloride]
		62	29.2	60	COc1ccc([C@@H]2[C@H](C)C(C(=O)NN3CCCCC3)=NN2c2ccc(Cl)cc2Cl)cc1.Cl (relative stereo) [Example 265, cis-1-(2,4-dichlorophenyl)-5-(4-methoxyphenyl)-4-methyl-N-(piperidin-1-yl)-4,5-dihydro-1H-pyrazole-3-carboxamide hydrochloride]

Reference: US20070073056A1, “4-Substituted Pyrazoline Compounds, their Preparation and Use as Medicaments” (LABORATORIOS DEL DR. ESTEVE, S.A., priority 2005, published 2007)
